Experimental data as given in patent US20250281483A1, “TRANSCRIPTION FACTOR EB ACTIVATORS AND USES THEREOF” (Astellas Engineered Small Molecules US, Incorporated, priority 2022, published 2025).

The compounds below were run against T1, TFEB (Homo sapiens, UniProt P19484) (assay: Tfeb-Translocation Assay HEK-293T-oEX-Tfeb-GFP Cell Line). Details: HEK-293T-oEX-TFEB-GFP cells; translocation positive cells ratio; read-out: TFEB Translocation EC50.
T1 sequence (P19484 1-476): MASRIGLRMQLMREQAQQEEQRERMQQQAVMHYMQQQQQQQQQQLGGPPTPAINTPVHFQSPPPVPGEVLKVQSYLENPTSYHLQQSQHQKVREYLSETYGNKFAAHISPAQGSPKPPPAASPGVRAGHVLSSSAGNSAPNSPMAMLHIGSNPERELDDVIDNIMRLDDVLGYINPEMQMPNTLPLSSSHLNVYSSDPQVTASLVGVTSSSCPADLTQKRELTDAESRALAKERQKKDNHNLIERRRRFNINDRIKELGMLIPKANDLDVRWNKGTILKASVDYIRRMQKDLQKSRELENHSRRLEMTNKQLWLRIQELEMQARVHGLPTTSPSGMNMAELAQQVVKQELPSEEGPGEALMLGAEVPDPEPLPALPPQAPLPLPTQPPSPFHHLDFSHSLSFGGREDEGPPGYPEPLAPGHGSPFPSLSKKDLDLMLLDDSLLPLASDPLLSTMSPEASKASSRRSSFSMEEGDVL
Format: cell-based
Method: Tfeb-Translocation Assay HEK-293T-oEX-Tfeb-GFP Cell Line
• 1). Added 2×10^6 cell into a T75 flask with 15 mL DiVEM medium (with 10% FBS, 1% PS, 1×GLUTAMAX, 1×MEM NEAA, 1×HEPES Buffer Solution and 5 ug/mL blasticidin). • 2). Culturing for 48-72 hours. Cells in logarithmic growth phase were taken for experiment. The other cells were passaged as described in step 1. • 3). Seeded 1×10^4 cells/30 μL/well into 384-well plate (BD 356663). Cultured overnight at 37° C. & 5% CO2 incubator. • 4). Note: Used cells <10 passage
• 1). Compounds were firstly diluted by DMSO to the stock needed (10 mM), and aliquoted and stored at −20° C. • 2). Took one aliquot each time and made 3-fold or 2-fold dilutions as indicated, total 10 doses plus one DMSO control well in the source plate. • 3). Added 150 or 90 nL/well compounds solution to the assay plate by ECHO and incubated for 6 or 18 hours respectively at 37° C. & 5% CO2 incubator.
• 1). Added 30 uL 8% PFA into the wells and incubated 20 min at room temperature. • 2). Discarded the medium, washed the wells twice with DPBS to eliminate foam and bubbles in the well.
• 1). Diluted Hoechest-333824 in DPBS to get 2 μg/mL solution and added 30 uL/well into assay plate, incubated at room temperature for 20 mins. • 2). Discarded the supernatant, washed the wells twice with DPBS to eliminate foam and bubbles in the well. Then added DPBS 20 uL/well.
3). Scanned Plate by Operetta.
• 1). Reference compound: Torin 1 • 2). Test compounds: C1, C2, C3, C4, C5, C6. • 3). Diluted compounds in 384 LDV-dilution plate according to the dilution plate map • 4). Compounds starting concentration: Torin 1: 300 nM and Test compounds: 50 uM.
• 1). Selected all nucleus by Operetta as ‘All Cells’ • 2). Calculated the EGFP average intensity inside the Nucleus region. • 3). Selected population that the EGFP mean intensity inside the Nucleus region>background as the EGFP-positive cells • 4). Selected the Surrounding region of the nucleus and calculated the EGFP mean intensity of the region • 5). Inside the EGFP-positive cell population, selected the cells with EGFP mean intensity inside the Nucleus region/the EGFP mean intensity inside the surrounding region=1.2 (This ratio could be slightly adjusted from time to time) as the Translocation positive cell. • 6). Outputted the ratio of Translocation positive cell/EGFP-positive cells as the Translocation Positive Ratio. • 7). Each time set the ratio of DMSO group (Control Group) as ˜15% and then normalized the compound group to the DMSO group.

EC50 [nM] | Structure (SMILES)
100 to 1000 | Cc1nc2ccn(C(C)C)c(=O)c2cc1C(=O)NCc1ccccn1 [Example 45, 6-isopropyl-2-methyl-5-oxo-N-(pyridin-2-ylmethyl)-5,6-dihydro-1,6-naphthyridine-3-carboxamide]
≥ 10000 | Cc1nc2ccn(Cc3cccnc3)c(=O)c2cc1C(=O)NCc1ccccn1 [Example 58, 2-methyl-5-oxo-N-(pyridin-2-ylmethyl)-6-(pyridin-3-ylmethyl)-5,6-dihydro-1,6-naphthyridine-3-carboxamide]
1000 to 10000 | COc1ccc(CNC(=O)c2cc3c(=O)n(Cc4ccccc4)ccc3nc2C)cc1 [Example 24, 6-benzyl-N-(4-methoxybenzyl)-2-methyl-5-oxo-5,6-dihydro-1,6-naphthyridine-3-carboxamide]
100 to 1000 | Cc1cnc(CNC(=O)c2cc3c(=O)n(Cc4ccccc4)ccc3nc2C)o1 [Example 3, 6-benzyl-2-methyl-N-((5-methyloxazol-2-yl)methyl)-5-oxo-5,6-dihydro-1,6-naphthyridine-3-carboxamide]
< 100 | Cc1ccc(CNC(=O)c2cc3c(=O)n(Cc4cccs4)ccc3nc2C)o1 [Example 70, 2-methyl-N-((5-methylfuran-2-yl)methyl)-5-oxo-6-(thiophen-2-ylmethyl)-5,6-dihydro-1,6-naphthyridine-3-carboxamide]
1000 to 10000 | Cc1nc2ccn(Cc3ccccc3)c(=O)c2cc1C(=O)NCc1ncccc1F [Example 36, 6-benzyl-N-((3-fluoropyridin-2-yl)methyl)-2-methyl-5-oxo-5,6-dihydro-1,6-naphthyridine-3-carboxamide]
100 to 1000 | Cc1nc2ccn(Cc3ccccc3)c(=O)c2cc1C(=O)NCc1cnccn1 [Example 32, 6-benzyl-2-methyl-5-oxo-N-(pyrazin-2-ylmethyl)-5,6-dihydro-1,6-naphthyridine-3-carboxamide]
≥ 10000 | Cc1nc2ccn(Cc3ccccc3)c(=O)c2cc1C(=O)NCc1ccc(C(N)=O)cc1 [Example 43, 6-benzyl-N-(4-carbamoylbenzyl)-2-methyl-5-oxo-5,6-dihydro-1,6-naphthyridine-3-carboxamide]
< 100 | Cc1nc2ccn(Cc3ccc(Cl)c(F)c3)c(=O)c2cc1C(=O)NCc1ccccn1 [Example 75, 6-(4-chloro-3-fluorobenzyl)-2-methyl-5-oxo-N-(pyridin-2-ylmethyl)-5,6-dihydro-1,6-naphthyridine-3-carboxamide]
100 to 1000 | Cc1ccc(CNC(=O)c2cc3c(=O)n(Cc4ccccc4)ccc3nc2C)cc1 [Example 68, 6-benzyl-2-methyl-N-(4-methylbenzyl)-5-oxo-5,6-dihydro-1,6-naphthyridine-3-carboxamide]
< 100 | Cc1nc(CNC(=O)c2cc3c(=O)n(Cc4ccc(Cl)cc4)ccc3nc2C)co1 [Example 80, 6-(4-chlorobenzyl)-2-methyl-N-((2-methyloxazol-4-yl)methyl)-5-oxo-5,6-dihydro-1,6-naphthyridine-3-carboxamide]
100 to 1000 | Cc1nc2ccn(Cc3ccccc3F)c(=O)c2cc1C(=O)NCc1ccccn1 [Example 56, 6-(2-fluorobenzyl)-2-methyl-5-oxo-N-(pyridin-2-ylmethyl)-5,6-dihydro-1,6-naphthyridine-3-carboxamide]
1000 to 10000 | COCCn1ccc2nc(C)c(C(=O)NCc3ccccn3)cc2c1=O [Example 30, 6-(2-methoxyethyl)-2-methyl-5-oxo-N-(pyridin-2-ylmethyl)-5,6-dihydro-1,6-naphthyridine-3-carboxamide]
100 to 1000 | Cc1ncc(CNC(=O)c2cc3c(=O)n(Cc4ccccc4)ccc3nc2C)o1 [Example 4, 6-benzyl-2-methyl-N-((2-methyloxazol-5-yl)methyl)-5-oxo-5,6-dihydro-1,6-naphthyridine-3-carboxamide]
≥ 10000 | COCCOCCOc1ccc(CNC(=O)c2cc3c(=O)n(Cc4ccc(Cl)cc4)ccc3nc2C)nc1 [Example 77, 6-(4-chlorobenzyl)-N-((5-(2-(2-methoxyethoxy)ethoxy)pyridin-2-yl)methyl)-2-methyl-5-oxo-5,6-dihydro-1,6-naphthyridine-3-carboxamide]
1000 to 10000 | Cc1nc2ccn(Cc3cccnc3)c(=O)c2cc1C(=O)NCc1ccc(Cl)cc1 [Comparator 1, reference compound]
< 100 | Cc1nc(CNC(=O)c2cc3c(=O)n(Cc4ccc(F)c(F)c4)ccc3nc2C)co1 [Example 76, 6-(3,4-difluorobenzyl)-2-methyl-N-((2-methyloxazol-4-yl)methyl)-5-oxo-5,6-dihydro-1,6-naphthyridine-3-carboxamide]
< 100 | Cc1nc2ccn(Cc3ccccc3)c(=O)c2cc1C(=O)NCc1ccc(Cl)cn1 [Example 38, 6-benzyl-N-((5-chloropyridin-2-yl)methyl)-2-methyl-5-oxo-5,6-dihydro-1,6-naphthyridine-3-carboxamide]
1000 to 10000 | Cc1nc2ccn(CC3CCO3)c(=O)c2cc1C(=O)NCc1ccc(Cl)cc1 (stereo not shown) [Example 27, N-(4-chlorobenzyl)-2-methyl-6-(oxetan-2-ylmethyl)-5-oxo-5,6-dihydro-1,6-naphthyridine-3-carboxamide]
< 100 | Cc1nc(CNC(=O)c2cc3c(=O)n(Cc4cccc(F)c4)ccc3nc2C)co1 [Example 79, 6-(3-fluorobenzyl)-2-methyl-N-((2-methyloxazol-4-yl)methyl)-5-oxo-5,6-dihydro-1,6-naphthyridine-3-carboxamide]
< 100 | Cc1nc(CNC(=O)c2cc3c(=O)n(Cc4cc(F)cc(F)c4)ccc3nc2C)co1 [Example 81, 6-(3,5-difluorobenzyl)-2-methyl-N-((2-methyloxazol-4-yl)methyl)-5-oxo-5,6-dihydro-1,6-naphthyridine-3-carboxamide]
100 to 1000 | Cc1nc2ccn(Cc3ccccc3)c(=O)c2cc1C(=O)NCc1cccnc1 [Example 23, 6-benzyl-2-methyl-5-oxo-N-(pyridin-3-ylmethyl)-5,6-dihydro-1,6-naphthyridine-3-carboxamide]
< 100 | Cc1nc2ccn(Cc3ccccc3)c(=O)c2cc1C(=O)NCc1ccc2c(c1)OCO2 [Example 69, N-(benzo[d][1,3]dioxol-5-ylmethyl)-6-benzyl-2-methyl-5-oxo-5,6-dihydro-1,6-naphthyridine-3-carboxamide]
≥ 10000 | Cc1nc2ccn(CC3CCCCC3)c(=O)c2cc1C(=O)NCc1ccccn1 [Example 40, 6-(cyclohexylmethyl)-2-methyl-5-oxo-N-(pyridin-2-ylmethyl)-5,6-dihydro-1,6-naphthyridine-3-carboxamide]
< 100 | Cc1nc2ccn(Cc3ccc(F)cc3)c(=O)c2cc1C(=O)NCc1ccccn1 [Example 47, 6-(4-fluorobenzyl)-2-methyl-5-oxo-N-(pyridin-2-ylmethyl)-5,6-dihydro-1,6-naphthyridine-3-carboxamide]
< 100 | Cc1nc2ccn(Cc3ccc(F)c(F)c3)c(=O)c2cc1C(=O)NCc1cc(F)c(F)cn1 [Example 62, 6-(3,4-difluorobenzyl)-N-((4,5-difluoropyridin-2-yl)methyl)-2-methyl-5-oxo-5,6-dihydro-1,6-naphthyridine-3-carboxamide]
1000 to 10000 | Cc1nc2ccn(Cc3ccccc3)c(=O)c2cc1C(=O)NCc1ccncc1 [Example 12, 6-benzyl-2-methyl-5-oxo-N-(pyridin-4-ylmethyl)-5,6-dihydro-1,6-naphthyridine-3-carboxamide]
< 100 | Cc1nc2ccn(Cc3ccccc3)c(=O)c2cc1C(=O)NCc1cc(F)c(Cl)cn1 [Example 57, 6-benzyl-N-((5-chloro-4-fluoropyridin-2-yl)methyl)-2-methyl-5-oxo-5,6-dihydro-1,6-naphthyridine-3-carboxamide]
